Experiments:
[1] = tested on: Staphylococcal strains resistant to streptogramins; details: staphylococci resistant to synergistic mixtures of A and B compounds / to A compounds (Allignet et al., 1996); cited from earlier work
[2] = tested on: S. aureus recipient strain RN4220 harboring pIP1714; experiment: Susceptibility of S. aureus RN4220 transformant harboring pIP1714 (vatC, vgbB); type: cell-based; details: RN4220 transformant harboring pIP1714, selected on 10 μg/ml pristinamycin IIA
Description: The strain BM10711 harbored several plasmids including pIP1714 (5 kb). This plasmid was isolated by electroporation in a S. aureus recipient strain, RN4220. The transformant, harboring pIP1714, was selected on BHIA containing 10 μg/ml pristinamycin IIA.
Susceptibility to antimicrobial agents was determined with a disk diffusion assay and commercially available disks (Diagnostic Pasteur). Additional disks prepared in our laboratory contained streptogramin A (20 μg) or streptogramin B (40 μg).
(§1) Minimal inhibitory concentrations (MICs) of antibiotics were determined by serial twofold dilutions of antibiotics in MHA (Ericson H. M. and S. C. Sherris, ActaPathol. Microbiol. Scand., 1971, Suppl. 217:Section B).

[3] = tested on: S. aureus recipient RN4220 transformants carrying recombinant plasmid pIP1717; experiment: MICs by serial twofold dilutions in MHA, S. aureus RN4220 transformants carrying pIP1717 (vgaB); type: cell-based; details: S. aureus RN4220 transformants with pIP1717
Text: First, the 2.4 kb HindIII-Haelll fragment of pIP1675, which contains only 10 nucleotide from vatB, was inserted into plasmid pOX300, and the recombinant plasmid, pIP1717 (FIG. 1B), was introduced by electroporation into the S. aureus recipient, RN4220 (Kreiswirth et al., 1983). Plasmid pOX300, also named pOX7, (Dyke and Curnock, 1989), is a hybrid of pUC18 and pEl94ts and replicates in E. coli where it confers resistance to ampicillin and to erythromycin, and in S. aureus where only resistance to erythromycin is expressed. The S. aureus transformants selected on 10 μg/ml erythromycin were resistant to streptogramin A and related compounds (PIIA MICs=8-16 μg/ml). Thus, the 2.4-kb HindIII-HaeIII insert of pIP1717 (FIG. 1B) probably carried a streptogramin A resistance gene and was sequenced. The nucleotide (nucleotide) sequence of this fragment was determined by the dideoxy method (Sanger et al., 1977) with the reagents and the procedure recommended by the suppliers of the T^7 sequencing kit (Pharmacia International). Arrows indicate the direction and extent of each dideoxy-sequencing reaction. (FIG. 1B).
as §1

Compound | MIC [1] [µg/mL] | resistance phenotype [2] | resistance phenotype [3]
CC1=C\[C@@H](O)CC(=O)Cc2nc(co2)C(=O)N2CCC=C2C(=O)O[C@H](C(C)C)[C@H](C)/C=C/C(=O)NC\C=C\1 [PIIA, pristinamycin IIA] | ≥ 8 | – | –
streptogramin A | – | conferred resistances | resistant
streptogramin B | – | conferred resistances | –

Source: US6570001B1, “Polynucleotides and their use for detecting resistance to streptogramin A or to streptogramin B and related compounds” (priority 1997, dated 2003)
